Results published in BigSolDB 2.1.

Nc1cc(-c2ccncc2)c[nH]c1=O
solubility (mole fraction)
Conditions	278.15 K	283.15 K	288.15 K	293.15 K	298.15 K	303.15 K	308.15 K	313.15 K	318.15 K	323.15 K
in DMF	7.24e-05	8.63e-05	0.000102	0.000118	0.000135	0.000154	0.000177	0.000203	0.000229	0.00026
in ethanol	2.65e-05	3.18e-05	3.71e-05	4.41e-05	5.07e-05	5.84e-05	6.7e-05	7.54e-05	8.47e-05	9.67e-05
in ethylene glycol	1.95e-05	2.33e-05	2.74e-05	3.26e-05	3.83e-05	4.35e-05	4.95e-05	5.62e-05	6.36e-05	7.18e-05
in methanol	5.18e-05	6.11e-05	7.22e-05	8.44e-05	9.72e-05	0.000111	0.000126	0.000141	0.00016	0.00018
in water	6.85e-07	8.07e-07	9.66e-07	1.13e-06	1.33e-06	1.53e-06	1.77e-06	2.02e-06	2.3e-06	2.63e-06
